The test system of one series is GHB uptake in KNRK cells. Kind of series: Inhibition of [3H]GHB uptake in KNRK cells. It counts as cell-based. The note with it: rat KNRK cells.
Another series has as its system MCT2. Particulars: expressed in Xenopus laevis oocytes; cited from earlier work.
The subject of a further series is MCT4. The note with it: expressed in Xenopus laevis oocytes; cited from earlier work.
Series [1] can be described thus: Pharmacokinetics of AR-C155858 in rats following intravenous administration. Particulars: 0.1, 1, and 5 mg/kg i.v. bolus.
For series [2] the following is noted: rats, mean (SD), cited from earlier work.
Series [3] relates to GHB-induced respiratory depression. Particulars: rats, mean (SD), cited from earlier work.
A short description of series [4]: GHB blood-brain partitioning at steady state. The note with it: rats; GHB 400 mg/kg i.v. bolus + 208 mg/kg/h i.v. infusion alone; 4 h; mean ± SD.
Series [5] in a line: Oral GHB toxicokinetics with and without AR-C155858.
The conditions of series [6]: rats, cited from earlier work.
The mark [7] stands for this setting: GHB 1500 mg/kg i.v. bolus alone.
Setting [8] is: male, Sprague-Dawley, rat, plasma, po, 1500 mg/kg.
[9] abbreviates: rats, GHB 1500 mg/kg oral gavage alone, mean (SD).

“Also recorded” adds a separate entry of the source. Where two headings read alike, the source gives them in different places.

As for `Cc1n[nH]c(C)c1Cc1sc2c(c1C(=O)N1C[C@H](O)CO1)c(=O)n(C)c(=O)n2CC(C)C` [AR-C155858, 6-[(3,5-Dimethyl-1H-pyrazol-4-yl)methyl]-5-[[(4S)-4-hydroxy-2-isoxazolidinyl]carbonyl]-3-methyl-1-(2-methylpropyl)thieno[2,3-d]pyrimidine-2,4(1H,3H)-dione], the “pre-incubation time giving maximal inhibition of GHB uptake” value in the series with GHB uptake in KNRK cells (100 nM AR-C155858, pre-incubation 0-60 min) came to 30 min. Also, the “concentration giving maximal inhibition of GHB uptake” value in the series with GHB uptake in KNRK cells (30 min pre-incubation) came out at 100 nM. Besides, the “reversibility of inhibition of GHB uptake after washing the cells” value with GHB uptake in KNRK cells (30 min pre-incubation with 100 nM, washed 3 times) was “not to be rapidly reversible”. For the same molecule, in the series on GHB uptake in KNRK cells (linear trend in inhibition up to 30 nM, 30 min pre-incubation), the “inhibition of GHB uptake” value amounted to 70%. The “inhibition of MCT2” value with MCT2 was “potently inhibited; also recorded: can also inhibit”. For the same molecule, in the series on MCT4, the “inhibition of MCT4” value is on record as “no inhibition; also recorded: does not inhibit”. Moreover, the “AR-C155858 plasma concentration-time profile” value in series [1] is “biexponential decline and dose-proportional pharmacokinetics”.
The CL/F is clearance divided by bioavailability, as obtained after extravascular dosing. Usually Cmax stands for the highest concentration seen after dosing. In the case of `O=C(O)CCCO` [GHB, γ-hydroxybutyric acid], in series [2] (GHB 200 mg/kg i.v. bolus alone), the “GHB AUC” value is on record as 26.2 (0.90) mg.min/ml, the “GHB CLR (renal clearance)” value is reported as 0.44 (0.20) ml/min/kg, the “GHB CLT (total clearance)” value is listed as 7.60 (0.29) ml/min/kg and the GHB urinary recovery is on record as 5.90 (2.86) %. For the same molecule, in series [2] (GHB 600 mg/kg i.v. bolus alone), the “GHB AUC” value is given as 102 (12.4) mg.min/ml, the “GHB CLR (renal clearance)” value is 1.68 (0.75) ml/min/kg and the GHB urinary recovery was 27.3 (9.77) %. In series [2] (setting [7]), the “GHB AUC” value was 288 (39.8) mg.min/ml, the “GHB CLT (total clearance)” value is 5.16 (0.70) ml/min/kg and the GHB urinary recovery is on record as 61.1 (5.02) %. In series [3] (GHB 200 mg/kg i.v. bolus alone), the “AUEC, area under the effect curve for breathing frequency” value (from here on “AUEC, area under the effect curve”) is given as 2243 (1508) breaths; the “Emax, maximum effect on breathing frequency” value (from here on “Emax, maximum effect”) is 51.9 (8.51) breaths/ min; the “Td, duration of effect on breathing frequency” value (shortened to “Td, duration of effect”) is recorded as 113 (60.6) min. In [3] (GHB 600 mg/kg i.v. bolus alone), the “AUEC, area under the effect curve” value was 7987 (1228) breaths; the “Emax, maximum effect” value is 29.5 (6.94) breaths/ min; the “Td, duration of effect” value is reported as 153 (12.5) min. In addition, in [3] (setting [7]), the “AUEC, area under the effect curve” value is reported as 12505 (1995) breaths; the “Emax, maximum effect” value is 15.6 (7.05) breaths/ min; the “Td, duration of effect” value was 281 (72.8) min. In addition, in [4], the “Cbrain, brain GHB concentration at steady-state” value stood at 0.22 ± 0.03 mg/g and the “Cplasma, plasma GHB concentration at steady-state” value is 0.87 ± 0.05 mg/mL. In series [5] (setting [8]), this molecule had an apparent clearance CL/F of 6.52 mL/min/kg and a Cmax of 659 µg/mL. This molecule also returned a CL renal in series [5] (male, Sprague-Dawley, rat, urine and plasma, po, 1500 mg/kg) of 1.82 mL/min/kg. In series [5] (setting [9]), the “GHB AUC” value is 233 (30.0) mg.min/ml and the GHB urinary excretion is on record as 28.2 (10.1) %.
In the case of `C[C@H](O)C(=O)O` [L-lactate], the “effect on GHB extracellular fluid concentrations in the frontal cortex” value in series [6] (higher doses, plasma steady state L-lactate concentrations ≈ 4–5 mM) is on record as “decreased”; in series [6] (lower doses, plasma steady state L-lactate concentrations ≈ 1–2 mM), “no significant effect”.
